Data on two compounds can be found in patent US5225182A, “Vectored drug delivery system using a cephaloplastin linking agent and a methed of using the system” (priority 1991, dated 1993).

One data set relates to liver. Kind of data set: Liver function tests on blood samples. The settings on record: after ten days of treatment. The format is in vivo, mice. The procedure:
Four groups of six male F1 hybrid mice (C57BL/6X DBA/2) 6-8 weeks old (20-25g body weight) were used for the study. […] Three additional mice were used as normal untreated controls.
In Examples VIII and IX, 8 mg/kg doses were administered intravenously.
The total number of nucleated cells, that is, the total number of total white blood cells, was counted with a Coulter counter and a blood film was prepared simultaneously for lymphocyte-to-neutrophil (L/N) ratio.
Liver function tests were performed on blood samples after ten days of treatment with the solutions (see Example III). Four doses were administered each day.

Another data set concerns K1210 leukemia cells. Kind of data set: Effect on mice implanted with leukemia cells. The format is in vivo, DBF mice. The note with it: 8 mg/kg i.v. The procedure:
(§1) All experimental animals were injected intravenously (IV) with 0.5 mg doses of cis-Platinum to a final concentration of […] body weight, maximum volume 0.2 mL/mouse. The above protocol was used in Examples II-VI. In Examples VIII and IX, 8 mg/kg doses were administered intravenously.
DBF mice were planted intraperitoneally with 10^4 K1210 leukemia cells. Three days later, 8 mg/kg of cis-Platinum in saline and cis-Platinum conjugate preparation was given intravenously via a tail vein.

For a further data set, the system named is L1210 leukemia cells. Kind of data set: Effect on in vivo tumor cells (L1210 leukemia). The note with it: 8 mg/kg iv. Set-up: species or system DBA mice. The method, then: as §1
10^4 L1210 leukemia cells were transplanted intravenously (iv) into DBA mice. Three days later the animals received 8 mg/kg cis-Platinum in saline or 8 mg/kg cisplatinum-conjugate administered (iv) (3 animals/group)

For a further data set, the system named is Colon 38 tumors. The experiment in a line: Antitumor tests, in vitro. The format is cell-based, murine. The settings on record: Colon 38, in vitro, 21 days. The procedure: Lewis lung murine tumors of the biological type lung carcinoma were implanted subcutaneously in the group B C57BL/6 mice. Colon 38 of the histological type colon carcinoma was implanted in group C57BL/6. Three mice from group A were implanted with Lewis lung tumors and the remaining three were implanted with colon 38 tumors subcutaneously. Three mice from control group D were implanted with Lewis lung tumors and three with colon 38 tumors.
The antitumor activity of both solutions was tested in vitro. Colon 38 tumors were used for in vitro screening of the antitumor effect. Tumors were place in 10ml solution of each of the agents. The tumors were removed after 21 days of culture growth and examined for weight loss and shrinkage in size.

The next data set has as its system lung. Kind of data set: Biodistribution by gamma camera with technicium Tc-99 m. The format is in vivo, mice. The settings on record: Tc-99 m given 30 min after injection. The procedure:
Four groups of six male F1 hybrid mice (C57BL/6X DBA/2) 6-8 weeks old (20-25g body weight) were used for the study. Group A received unconjugated cis-Platinum; the second group, B, received cis-Platinum conjugated with the organ-specific vectoring reagent macroaggregated albumin (MAA). Group C received cis-Platinum conjugated with colloidal sulfur particles. Group D was injected with MAA alone, with no cis-Platinum conjugated or unconjugated, and served as controls. Three additional mice were used as normal untreated controls.
as §1
Thirty minutes after injecting the mice with either agent, one millicurie of technicium Tc-99 m was injected IV and the mice placed under a gamma camera to trace the cis-Platinum.
Similar patterns of activity were seen when both groups of mice were injected after three days.

Another data set relates to bones. The experiment in a line: Progesterone delivery to bones (APAAP staining). Type of data set: in vivo, mice. The procedure:
Thirty-nine mg of finely divided progesterone were added to 2.4 ml of linking agent containing Composition C and injected into mice (see Example XII). The drug was examined for its presence in bones after 2days by taking sections of bone from ribs and staining the sections with monoclonal antibodies to progesterone using the […] labeling system as described by Cordell et al. in J. Histochem. Cytochem. 32:219 (1984).

The nature of data set [1]: Drug release in vitro by column elution method. Type of data set: physicochemical. The note with it: after 14 hrs, 37° C, saline 0.4 ml/min. The method, then: Using the conjugate prepared in Example XXVI, the drug release was estimated in vitro by the column elution method described below.
2.0 ml of deionized water was added to 11.6 mg of dry (lyophilized) conjugate as prepared in Example XXVI. The slurry was pipetted into 140 ×7 mm glass columns. The ends of each of the columns were filled with chromatographic caps packed with glass wool. The ends were then attached to threaded zero-volume collectors and connected to 10 mm 1:0 teflon tubing. The columns were placed in a circulating water bath at 37 ° C. Saline was pumped through columns at 0.4 ml/min flow rate with an HPLC pump (ALTEX 110A). Fractions were collected as a function of time at 4° C. and analyzed by uv/vis spectroscopy method. Results: Approximately 20% drug release was found in samples taken after 14 hrs.

In the data set on liver, `N.N.[Cl-].[Cl-].[Pt+2]` [cis-Pt, cis-Platinum (II) Diammine Dichloride] came in with a Prothrombin clotting time of 16, an SGOT of 120, an SGPT of 112 and a Serum bilirubin of 3.8. Also, in the data set with K1210 leukemia cells, the “% ILS” value is on record as 80%. Moreover, the “Incr. Life Span (ILS)” value in the data set with L1210 leukemia cells was determined as 111%. In the data set on Colon 38 tumors, this compound had a Shrinkage of 41% and a Weight loss of 63%. The “distribution of the radioisotope in organs in the abdomen” value with lung is “even distribution of the radioisotope in all organs in the abdomen”.
For progesterone, the “delivery to the bones” value with bones (after 2 days, sections of rib bone) was “effectively delivered to the bones”. The “retention in bones as an active molecule” value with bones (mouse, in vivo) was “up to 21 days”. Further, the drug release entry in data set [1] is given as “Approximately 20%”.
